Test results from the NIST ThermoML archive (doi:10.1021/acs.jced.7b00578).
Several values for one entry are separate records, joined by “and”; a condition that tells them apart may be missing. Equal entries are not always repeated. Numbers after ± are expanded uncertainties.

Columns and labels:
[1] = for vapor or sublimation pressure: Closed cell (Static) method; for Normal melting temperature: DTA
[2] = Molar enthalpy of transition or fusion; conditions: Crystal; DSC
[3] = molar heat capacity at constant pressure; conditions: 101.33 kPa, Extra sensitive DSC

O=C1OCCO1 [ethylene carbonate]
Conditions | molar heat capacity at constant pressure [J/K/mol] | vapor or sublimation pressure
[1], 272.67 K, Crystal | – | 0.00025 ± 0.00012 kPa
[1], 272.74 K, Crystal | – | 0.00026 ± 0.00012 kPa
[1], 272.8 K, Crystal | – | 0.00025 ± 0.00012 kPa
[1], 272.88 K, Crystal | – | 0.00025 ± 0.00012 kPa
[1], 278.16 K, Crystal | – | 0.00051 ± 0.00012 kPa and 0.00049 ± 0.00012 kPa
[1], 278.17 K, Crystal | – | 0.00049 ± 0.00012 kPa
[1], 283.05 K, Crystal | – | 0.00087 ± 0.00013 kPa and 0.00088 ± 0.00013 kPa and 0.00086 ± 0.00013 kPa
[1], 288.1 K, Crystal | – | 0.00154 ± 0.00014 kPa and 0.00152 ± 0.00014 kPa and 0.00151 ± 0.00014 kPa
[1], 292.98 K, Metastable liquid | – | 0.0034 ± 0.00018 kPa and 0.00338 ± 0.00018 kPa
[1], 293 K, Metastable liquid | – | 0.00341 ± 0.00018 kPa
[1], 293.01 K, Crystal | – | 0.00258 ± 0.00016 kPa and 0.00256 ± 0.00016 kPa
[1], 293.02 K, Crystal | – | 0.00254 ± 0.00016 kPa and 0.00256 ± 0.00016 kPa
[1], 297.98 K, Crystal | – | 0.00431 ± 0.0002 kPa and 0.0043 ± 0.0002 kPa
[1], 297.99 K, Crystal | – | 0.00431 ± 0.0002 kPa
[1], 297.99 K, Metastable liquid | – | 0.00518 ± 0.00023 kPa and 0.0052 ± 0.00023 kPa and 0.00521 ± 0.00023 kPa
[1], 298 K, Metastable liquid | – | 0.0052 ± 0.00023 kPa
[1], 302.82 K, Crystal | – | 0.00702 ± 0.00029 kPa and 0.00697 ± 0.00029 kPa
[1], 302.83 K, Crystal | – | 0.00701 ± 0.00029 kPa
[1], 302.92 K, Metastable liquid | – | 0.0078 ± 0.00032 kPa and 0.00783 ± 0.00032 kPa
[1], 307.84 K, Crystal | – | 0.01131 ± 0.00045 kPa
[1], 307.84 K, Metastable liquid | – | 0.01153 ± 0.00046 kPa and 0.01158 ± 0.00046 kPa and 0.01159 ± 0.00046 kPa
[1], 307.85 K, Crystal | – | 0.01133 ± 0.00045 kPa and 0.0113 ± 0.00045 kPa
[1], 307.85 K, Metastable liquid | – | 0.01159 ± 0.00046 kPa
[1], 312.82 K, Liquid | – | 0.01692 ± 0.00057 kPa and 0.01693 ± 0.00057 kPa
[1], 312.83 K, Liquid | – | 0.01694 ± 0.00057 kPa
[1], 317.76 K, Liquid | – | 0.02435 ± 0.00069 kPa
[1], 317.77 K, Liquid | – | 0.02435 ± 0.00069 kPa and 0.02433 ± 0.00069 kPa
[1], 322.65 K, Liquid | – | 0.03439 ± 0.00084 kPa and 0.03437 ± 0.00084 kPa
[1], 322.66 K, Liquid | – | 0.03443 ± 0.00085 kPa
[1], 327.75 K, Liquid | – | 0.04874 ± 0.0011 kPa and 0.04875 ± 0.0011 kPa
[1], 327.76 K, Liquid | – | 0.04872 ± 0.0011 kPa
[1], 327.77 K, Liquid | – | 0.04878 ± 0.0011 kPa
[1], 332.8 K, Liquid | – | 0.06796 ± 0.0014 kPa and 0.06798 ± 0.0014 kPa and 0.06797 ± 0.0014 kPa
[1], 337.66 K, Liquid | – | 0.09261 ± 0.0018 kPa
[1], 337.67 K, Liquid | – | 0.09259 ± 0.0018 kPa and 0.09267 ± 0.0018 kPa
[1], 337.68 K, Liquid | – | 0.09275 ± 0.0019 kPa
[1], 342.68 K, Liquid | – | 0.126 ± 0.0024 kPa
[1], 342.69 K, Liquid | – | 0.1261 ± 0.0024 kPa and 0.1262 ± 0.0024 kPa
[1], 342.7 K, Liquid | – | 0.1262 ± 0.0024 kPa
[1], 347.63 K, Liquid | – | 0.1694 ± 0.0027 kPa
[1], 347.65 K, Liquid | – | 0.1695 ± 0.0027 kPa
[1], 347.66 K, Liquid | – | 0.1696 ± 0.0027 kPa
[1], 352.45 K, Liquid | – | 0.2235 ± 0.0034 kPa
[1], 352.46 K, Liquid | – | 0.2236 ± 0.0034 kPa
[1], 352.47 K, Liquid | – | 0.2238 ± 0.0034 kPa
[1], 352.49 K, Liquid | – | 0.2241 ± 0.0034 kPa
[1], 357.49 K, Liquid | – | 0.296 ± 0.0042 kPa
[1], 357.5 K, Liquid | – | 0.2961 ± 0.0042 kPa and 0.2962 ± 0.0042 kPa and 0.2963 ± 0.0042 kPa
[1], 362.62 K, Liquid | – | 0.3906 ± 0.0054 kPa
[1], 362.63 K, Liquid | – | 0.3906 ± 0.0054 kPa and 0.3907 ± 0.0054 kPa
[3], 262.19 K, Crystal | 101.89 ± 4 | –
[3], 264 K, Crystal | 102.85 ± 4 | –
[3], 266 K, Crystal | 104 ± 4 | –
[3], 268 K, Crystal | 105.06 ± 4.1 | –
[3], 270 K, Crystal | 106.2 ± 4.1 | –
[3], 272 K, Crystal | 107.35 ± 4.2 | –
[3], 274 K, Crystal | 108.49 ± 4.2 | –
[3], 276 K, Crystal | 109.72 ± 4.2 | –
[3], 278 K, Crystal | 110.87 ± 4.3 | –
[3], 280 K, Crystal | 112.1 ± 4.3 | –
[3], 282 K, Crystal | 113.33 ± 4.4 | –
[3], 284 K, Crystal | 114.57 ± 4.4 | –
[3], 286 K, Crystal | 115.8 ± 4.5 | –
[3], 288 K, Crystal | 117.03 ± 4.5 | –
[3], 290 K, Crystal | 118.26 ± 4.6 | –
[3], 292 K, Crystal | 119.59 ± 4.6 | –
[3], 294 K, Crystal | 120.91 ± 4.7 | –
[3], 295.68 K, Crystal | 121.96 ± 4.7 | –
[3], 316.43 K, Liquid | 139.49 ± 5.4 | –
[3], 317 K, Liquid | 139.58 ± 5.4 | –
[3], 318 K, Liquid | 139.75 ± 5.4 | –
[3], 319 K, Liquid | 139.84 ± 5.4 | –
[3], 320 K, Liquid | 140.02 ± 5.4 | –
[3], 321 K, Liquid | 140.1 ± 5.4 | –
[3], 322 K, Liquid | 140.28 ± 5.4 | –
[3], 323 K, Liquid | 140.37 ± 5.4 | –
[3], 323.6 K, Liquid | 140.46 ± 5.4 | –

Conditions | Normal melting temperature [°C]
[1], Crystal | 35.98 ± 0.7

Conditions | Molar enthalpy of transition or fusion [kJ/mol]
[2] | 13.5 ± 0.7

CC1CCC(=O)O1 (centres undefined) [γ-valerolactone]
Liquid
Conditions | molar heat capacity at constant pressure [J/K/mol] | vapor or sublimation pressure
[1], 238.07 K | – | 0.00014 ± 0.00011 kPa
[1], 238.08 K | – | 0.00015 ± 0.00011 kPa
[1], 238.09 K | – | 0.00015 ± 0.00011 kPa
[1], 243.06 K | – | 0.00026 ± 0.00011 kPa
[1], 243.07 K | – | 0.00026 ± 0.00011 kPa
[1], 248.13 K | – | 0.00048 ± 0.00012 kPa
[1], 253.14 K | – | 0.00082 ± 0.00012 kPa
[1], 258.15 K | – | 0.00138 ± 0.00013 kPa
[1], 263.14 K | – | 0.00228 ± 0.00015 kPa
[1], 268.14 K | – | 0.00369 ± 0.00018 kPa
[1], 273.14 K | – | 0.00586 ± 0.00025 kPa
[1], 273.15 K | – | 0.00586 ± 0.00025 kPa
[1], 273.63 K | – | 0.00612 ± 0.00026 kPa
[1], 273.64 K | – | 0.00612 ± 0.00026 kPa
[1], 278.14 K | – | 0.00912 ± 0.00037 kPa
[1], 283.14 K | – | 0.01396 ± 0.00053 kPa and 0.01395 ± 0.00053 kPa
[1], 288.14 K | – | 0.02098 ± 0.00064 kPa and 0.02097 ± 0.00064 kPa
[1], 288.15 K | – | 0.021 ± 0.00064 kPa
[1], 293.13 K | – | 0.03106 ± 0.0008 kPa
[1], 293.14 K | – | 0.03111 ± 0.0008 kPa and 0.03109 ± 0.0008 kPa
[1], 298.14 K | – | 0.04532 ± 0.001 kPa and 0.04531 ± 0.001 kPa
[1], 303.13 K | – | 0.06501 ± 0.0013 kPa and 0.06502 ± 0.0013 kPa
[1], 308.14 K | – | 0.09212 ± 0.0018 kPa and 0.09211 ± 0.0018 kPa
[3], 265.37 K | 167.7 ± 6.5 | –
[3], 270 K | 168.6 ± 6.5 | –
[3], 275 K | 169.6 ± 6.6 | –
[3], 280 K | 170.7 ± 6.6 | –
[3], 285 K | 171.81 ± 6.7 | –
[3], 290 K | 172.91 ± 6.7 | –
[3], 295 K | 174.11 ± 6.7 | –
[3], 300 K | 175.31 ± 6.8 | –
[3], 305 K | 176.61 ± 6.8 | –
[3], 310 K | 177.81 ± 6.9 | –
[3], 315 K | 179.11 ± 6.9 | –
[3], 320 K | 180.42 ± 7 | –
[3], 325 K | 181.72 ± 7 | –
[3], 330 K | 183.02 ± 7.1 | –
[3], 335 K | 184.22 ± 7.1 | –
[3], 340 K | 185.52 ± 7.2 | –
[3], 345 K | 186.72 ± 7.2 | –
[3], 350 K | 187.93 ± 7.3 | –
[3], 355 K | 189.13 ± 7.3 | –
[3], 358.5 K | 189.93 ± 7.4 | –

Conditions | Normal melting temperature [°C]
[1], Crystal | -34.81 ± 0.7

Conditions | Molar enthalpy of transition or fusion [kJ/mol]
[2] | 7.1 ± 0.6
